Source: patent publication EP1779900A1, “Cosmetic or dermatological composition for prevention of light-induced aging” (Apotheker Walter Bouhon GmbH, priority 2005, dated 2007)

Test system: interstitiellen Kollagenase 1 (Matrixmetalloproteinase-1, MMP1)
Test: Inhibition of UV-A-induced MMP1 mRNA expression in human dermal fibroblasts (real-time PCR, in vitro)
Assay type: cell-based
Settings: 20 J/cm^2 UV-A, versus control
Description: Es wird die Hemmung der UV-A-induzierten Genexpression am Beispiel der interstitiellen Kollagenase 1 (Matrixmetalloproteinase-1, MMP1) in humanen dermalen Fibroblasten untersucht. Die UV-A-induzierte Expression von MMP1 mRNS wird mittels Echtzeit PCR (Polymerase-Kettenreaktion) aus Zellen, die 24 Stunden nach der Bestrahlung mit 20 J/cm^2 geerntet worden sind, im Vergleich zu unbehandelten zeitgleichen Kontrollen bestimmt.
Da Serum Vitamin-A enthält, werden die verwendeten Zellkulturen für 24 Stunden serum-depriviert. Zur Kontrolle wird die Genexpression an unbehandelten Zellen ohne und mit UV-A-Bestrahlung ermittelt. In einer Konzentrationsreihe von 0,1 bis 30 µM an zugesetztem Retinol wird jeweils die Genexpression der unbestrahlten und der mit UV-A bestrahlten Zellkulturen bestimmt.
Wiederum wird eine Kontrollmessung der Genexpression an unbehandelten Zellkulturen mit und ohne UV-A-Bestrahlung durchgeführt. Den Zellkulturen wird in einer Konzentrationsreihe zwischen 5 und 100µM Generol® R, ein käuflich erwerbbares Produkt der Cognis France SA zugefügt. Generol® R ist eine Mischung aus verschiedenen Phytosterolen und wird aus Raps gewonnen. Generol® R besteht zu 40 bis 60% aus Sitosterol, 25 bis 40% Campesterol, 7 bis 18% Brassicasterol und einem geringem Anteil an Stigmasterol. Zum Erreichen der beschriebenen Konzentrationsreihe wurde Generol® R entsprechend verdünnt. […]

Structure (SMILES)	Hemmung der MMP1-Expression (Vitamin-A 10-25 µM (series 0,1-30 µM Retinol), serum-deprived 24 h, cells harvested 24 h after irradiation) [%]	Hemmung der MMP1 mRNS-Expression (Vitamin-E-Sukzinat 10-75 µM, 24 h after irradiation) [%]
CC1=C(/C=C/C(C)=C/C=C/C(C)=C/CO)C(C)(C)CCC1 [Vitamin-A, Retinol]	≤ 82	–
Cc1c(C)c2c(c(C)c1OC(=O)CCC(=O)O)CCC(C)(CCCC(C)CCCC(C)CCCC(C)C)O2 (centres unmarked) [Vitamin-E-Sukzinat]	–	≤ 75
